Results from patent US7635722B1, “Chemical induced intracellular hyperthermia” (priority 1998, dated 2009).
Read-outs that look alike come from different tables or passages of the source.

Experiments:
[1] = assay type: in vivo, human
Method: Placement of physiologic monitoring sensors, intravenous fluids, supplemental oxygen (4 l/min) and optional oral diazepam sedation (5-10 mg) is initiated prior to treatment. Patients receive 0.85 to 1.0 liter of intravenous (IV) 5% dextrose in 0.25 normal saline per hour alternated with 5% dextrose in 0.5 normal saline plus 7.5 to 10 meq of KCl per liter to insure a urinary output of no less than 1 ml/kg/hr. […] Two hours after treatment and 48 hours post-treatment, serum chemistries and hematologic profiles are repeated. A typical patient flow chart is depicted in FIG. 14.
Pretreatment protocol: the patient was given 10 mg diazepam by mouth and dressed into a modified wet suit. The wet suit was cut lengthwise at the arms and legs. Velcro strappings were attached at the cuttings for closure, rapid removal or exposure of the limb(s). After placement of monitoring sensors, they were started on IV fluids of 5% dextrose, 0.5 normal saline with 7 meq K^+, infused at an initial rate of 12 cc/kg/hr. Evaporative heat loss from the head was minimized by a plastic shower cap and towels. A 401AC temperature probe (YSI Incorporated, Yellow Springs, Ohio) was inserted 11 cm. into the rectum. […] A TEEM 100 Metabolic Analysis System (AeroSport Inc., Ann Arbor, Mich.), with a modified face mask and oxygen delivery system (38-40% 02 saturation) for patient comfort and increased accuracy, was attached to the patient. Oxygen consumption (V02), carbon dioxide production (VC02), expired air volume (VE), heart rate (HR), and Kcal of heat produced were measured in 20 second intervals and extrapolated to minute or hourly rates.
Pretreatment protocol: all medications were stopped 2 weeks prior to treatment. The patient refused taking diazepam, placement of a Foley catheter and oxygen face mask. They dressed themself into a dry cold water immersion suit (Stearns, ISS-590I, Universal Adult) designed to prevent heat loss and modified for easy placement of physiologic monitors. Equipment for measurement of heart rate, temperature, carbon dioxide production and Kcal of heat produced were conducted as outlined in Example 1. An oral breathing tube was used to measure V02 from room air. Urine output was measured when the patient voluntarily urinated through a “Texas” catheter (superficial condom tightly fitted around the head of the penis with tubing connected to urine collection bag). The patient was informed that hyperthermia would be administered as tolerated by their stamina and monitored clinical parameters, not to exceed 5 hours, on a daily or every other day basis, for a total of 5 sessions.
(§1) Pretreatment protocol: the evening prior treatment the patient was instructed not to eat and dress in cotton undergarments. Approximately 4 hours prior to treatment 2 mg alprazolam was administered by mouth. The patient dressed themself into a dry cold water immersion suit (Stearns, previously described) with headgear. Monitoring sensors, including EKG display, IV fluids and Foley catheter were attached and the suit was zipped closed. The patient opted for oxygen supplementation. The modified face mask was connected to the TEEM 100 metabolic Analysis System for V02 measurements. Data was recorded as previously described.
Pretreatment protocol: the patient was transfused with three units of packed red blood cells. A Foley catheter was inserted on each day of treatment. They were covered in a water soaked blanket containing a polyethylene lining. A shower cap with towels was used to prevent heat loss from the head. Intravenous lines were placed into both arms with 19 gauge intracaths. EKG, heart rate, rectal thermistor, and V02 monitors were attached. Oxygen supplemented facemask and equipment was attached and data monitored as previously described under Example 1.
Pretreatment protocol: the patient was transfused with 2 units of packed red blood cells 48 hours prior to undergoing treatment. Intravenous fluids (Lactated Ringer's solution) were administered at a rate of 100 cc/hour. […]

Borrelia burgdorferi = test: DNP hyperthermia, Lyme disease (Example 3); assay type: in vivo, human
Method: as §1
The patient was infused with 1 mg/kg DNP over a 2 minute period. V02 increased and stabilized at 250 cc/min, 5.3 cc/kg/min. A second dose of 2.0 mg/kg was infused over a 2 minute period and the V02 peaked at 400 cc/min, 8.8 cc 02/kg/min. An additional dose of 1.0 mg/kg DNP was given 30 minutes after the second dose. The V02 increased and reached a stable plateau at 600 cc/min, […]. […] V02 increased back to 680-710 cc/min. […] The patient periodically requested the V02 monitoring mask be removed during the hyperthermia treatment period. They were accommodated with removal of the mask on two occasions for periods not exceeding 10 minutes. […] The treatment was terminated 4 hours and 10 minutes after the initial dose of DNP. Twenty five minutes after the patient was removed from the neoprene survival suit, the rectal core temperature dropped to 38.5° C. Normothermia was achieved approximately 60 minutes after cessation of therapy and removal from the survival suit. Approximately 6.5 to 7 hours after treatment the patient experienced chills, an increase in oral temperature to 38.7 degrees centigrade and malaise. IV fluids and the dopamine drip at 2 mcg/kg/min were restarted and the patient was closely observed. Their symptoms subsided over 3 hours and by the next day they felt active and hungry. It was surmised they may have experienced a delayed Jarisch-Herxheimer reaction. The patients monitored treatment flow chart is FIG. 18.

[2] = Example 3, peak after second dose of 2.0 mg/kg DNP
[3] = Example 3, stable plateau after additional 1.0 mg/kg DNP
[4] = Example 4, DNP 1 mg/kg + 3 x 0.5 mg/kg after mephenteramine

O=[N+]([O-])c1ccc(O)c([N+](=O)[O-])c1 [DNP, 2,4-dinitrophenol]
rectal body temperature ([1]; Example 1, DNP 1 + 3 mg/kg IV plus glucagon, maintained about 1 hour): 40 °C
post-treatment toxicity ([1]; Example 1, DNP with glucagon): No immediate or delayed post-treatment toxicity
V02 above baseline ([1]; Example 1, stabilized after initial 1 mg/kg DNP IV): 40%
V02 ([1]; Example 2, 15 minutes after initial 2 mg/kg DNP, baseline 300 cc/min): 340-380 cc/min
V02 ([1]; Example 2, after additional 2 mg/kg DNP infusion): 610-630 cc/min
blood pressure ([1]; Example 2, gradual fall noted at 90 minutes): 100/60
repeat blood work ([1]; Example 2, on days of treatment): no significant hematologic, electrolyte, liver or kidney changes from baseline
tolerability of the procedure ([1]; Example 2, period of 7 hours): without any untoward effects
body core temperature ([1]; Example 2, within 60 minutes, DNP 2 + 2 mg/kg): 39.4 °C
tolerability of the procedure ([1]; Example 3): experienced no problems during the procedure but was noticeably fatigued by hour 3
oral temperature ([1]; Example 3, 6.5 to 7 hours after treatment, with chills and malaise): 38.7 degrees centigrade
V02 per kg ([1]; Example 3, after 1 mg/kg DNP, baseline 3.7): 5.3 cc/kg/min
V02 ([1]; Example 3, after 1 mg/kg DNP, baseline 220 cc/min): 250 cc/min
V02 [1, 2]: 400 cc/min
V02 per kg [1, 2]: 8.8 cc 02/kg/min
V02 [1, 3]: 600 cc/min
V02 per kg [1, 3]: 10.8 cc/kg/min
V02 [1, 4]: 780-820 cc/min
core temperature, maximum [1, 4]: 41.4 °C
plateau temperature ([1]; Example 4, maintained 2 hours and 30 minutes): 41.5 °C
VO2 uptake above baseline ([1]; Example 7, 300 mg capsule of DNP orally, three hours before, immediately prior to emission scan): 40%
VO2 above baseline ([1]; Example 8, DNP 1 + 2 mg/kg IV): 50%
blood pressure and cardiac rates ([1]; Example 9): remained within normal limits
VO2 ([1]; Example 9, 15 minutes after additional 1 mg/kg DNP): 420 cc/minute
VO2 ([1]; Example 9, 20 minutes after 2 mg/kg DNP IV, baseline 250 cc/minute): 340-360 cc/minute
VO2 ([1]; Example 9, 20 minutes after additional 1 mg/kg DNP at hour 3): 450-500 cc/minute
tolerability of the procedure ([1]; Example 9, 6 hours): without any adverse effects
rectal probe temperature increase over baseline, maximum ([1]; Example 9, DNP with methylene blue): 1.3 °C
general toxicity ([1]; Example 9, at any time during treatment): no evidence of general toxicity
VO2 ([1]; Example 9, declined by hour 3): 360-380 cc/minute
fatigue ([1]; Example 10): notably fatigued at hour 5
sweating ([1]; Example 10): sweat profusely
VO2 ([1]; Example 10, 20 minutes after 1 mg/kg DNP, baseline 160 cc/min, interferon-alpha 6 hours before): approximately 210 cc/min
VO2 ([1]; Example 10, 20 minutes after additional 2 mg/kg DNP): 420 cc/min
VO2 ([1]; Example 10, 20 minutes after additional 2.0 mg/kg DNP): 360 cc/min
VO2 ([1]; Example 10, declined two hours after last dose): 280 cc/min
rectal temperature above normal baseline ([1]; Example 10, no efforts to prevent body heat loss): ≤ 1.3 °C
VO2 ([1]; Example 10, peak 20 minutes after second dose of 1 mg/kg DNP): 250 cc/min
repeat spinal fluid analysis, Borrelia DNA by PCR (Borrelia burgdorferi; after treatment): no detectable Borrelia DNA by PCR
spinal fluid culture on Barbour-Stoenner-Kelly II medium (Borrelia burgdorferi; three months later): negative
EKG (Borrelia burgdorferi; two months follow-up): resolution of their first degree A-V block
symptoms (Borrelia burgdorferi; two months follow-up): arthralgias, myalgias, malaise, fatigue and memory deficits have disappeared
